The Bradley open melting point set (2014)
Several values for one entry are separate records, joined by “and”; a condition that tells them apart may be missing. Equal values may be shown once. Where a name gives a salt, the structure may show the parent alone.

SMILES	melting point
Cc1c(N(C)C)c(=O)n(-c2ccccc2)n1C	108 °C
CC(CCC(=O)O)C1CCC2C3CCC4CC(=O)CCC4(C)C3CCC12C (centres undefined) [3-oxocholan-24-oic acid]	140 °C
O=C(O)c1cc(Br)ccc1Cl [5-bromo-2-chlorobenzoic_acid]	154 °C
COc1cc(/C=C/C(=O)NCCc2ccc(OCc3ccccc3)c(OC)c2)ccc1OCc1ccccc1	164 °C
O=Cc1cc(Br)c(O)c(Br)c1 [3,5-dibromo-4-hydroxybenzaldehyde]	182 °C
O=[N+]([O-])c1ccc(I)cc1 [1-iodo-4-nitrobenzene]	175 °C
Cl[C@H]1[C@H](Cl)[C@@H](Cl)[C@H](Cl)[C@H](Cl)[C@H]1Cl [a-hexachlorocyclohexane]	159 °C
Cn1cnc(C(=O)O)c1 [1-methylimidazole-4-carboxylic acid]	242 °C
CC1=CC(c2c(C)cc(C)cc2C)N=N1 (centres undefined) [5-methyl-3-(2,4,6-trimethylphenyl)-1H-pyrazole]	129 °C
O=C(O)c1ccc(Br)cc1 [4-bromobenzoic acid]	256 °C
CSCC[C@H](N)CO [L-methioninol]	32 °C
COc1ccc(O)cc1 [4-methoxyphenol]	56 °C and 57 °C
Cc1cccc(C)c1[N+](=O)[O-] [2-nitro-m-xylene]	15 °C
O=C=Nc1ccc(Cl)cc1Cl [2,4-dichlorophenyl isocyanate]	59 °C
C=Cc1ccccc1B(O)O [2-vinylbenzeneboronic acid]	106 °C
Cc1cc(B(O)O)ccc1Cl [4-chloro-3-methylbenzeneboronic acid]	240 °C
O=C(O)c1c(F)cnc(F)c1F [2,3,5-trifluoropyridine-4-carboxylic acid]	110 °C
Oc1ccc(Br)cc1Br [2,4-dibromophenol]	40 °C
COc1ccc(C=CC(=O)c2ccccc2)cc1 [Chalcone, 4-methoxy-]	76 °C
O=C(O)c1cccc(C(=O)c2ccccc2)c1 [3-benzoylbenzoic acid]	164 °C
Cc1ccc(N)cc1C [3,4-dimethylaniline]	51 °C
COc1cc(OC)c2c(c1Cl)O[C@]1(C2=O)C(OC)CC(=O)C[C@H]1C (some centres undefined) [Griseofulvin]	220 °C

SMILES	melting point
Nc1cc(Cl)ccc1Cl [2,5-dichloroaniline]	50 °C
O=C(O)c1cc([N+](=O)[O-])ccc1O [5-nitrosalicylic acid]	232 °C
CCCc1ccc(-c2ccc(C(=O)O)cc2)cc1 [4'-n-propylbiphenyl-4-carboxylic acid]	226 °C
CCCCCCCCCCCC[N+](C)(C)[O-] [Dodecyl(dimethyl)amine oxide]	132 °C
Cc1cccc(-c2ccccc2)c1 [3-methylbiphenyl]	5 °C
C=CCC(C)C [4-methyl-1-pentene]	-153 °C
CC1(O)CCCC1 [1-methylcyclopentanol]	37 °C
Nc1ccc([N+](=O)[O-])cc1[N+](=O)[O-] [2,4-dinitroaniline]	177 °C
c1ccc2cc3cc4ccccc4cc3cc2c1 [Tetracene]	350 °C
CCOC(=O)C1(c2ccccc2)CCN(C)CC1 [Meperidine]	188 °C
CC12CCC(=O)CC1CCC1C2CCC2(C)C1CCC21OCCO1 (centres undefined)	188 °C
CCCCCCCCCCCCCCCCI [1-Iodohexadecane]	22 °C
COc1ccc2cc[nH]c2c1 [6-methoxyindole]	92 °C
O=C[C@@H](O)[C@H](O)[C@H](O)CO [D-arabinose]	156 °C
CC(C)/C=N/Nc1ccc([N+](=O)[O-])cc1[N+](=O)[O-] [(2E)-1-(2,4-Dinitrophenyl)-2-(2-methylpropylidene)hydrazine]	186 °C
OC(O)C(Cl)(Cl)Cl [chloral hydrate]	57 °C
Oc1ccc(C(c2ccccc2)(c2ccccc2)c2ccccc2)cc1 [4-tritylphenol]	281 °C
Cc1ccc([N+](=O)[O-])cc1Cl [2-chloro-4-nitrotoluene]	60 °C
CCc1ccccc1O [2-Ethylphenol]	-28 °C
NC(=O)c1ccccc1N [2-aminobenzamide]	112 °C
Nc1cccc(Cl)c1 [3-chloroaniline]	-10 °C
COc1ccc(B(O)O)cc1 [4-methoxybenzeneboronic acid]	205 °C

SMILES	melting point
Nc1ccc2cc3ccccc3cc2c1 [2-aminoanthracene]	237 °C
Fc1ccc2cc[nH]c2c1 [6-fluoroindole]	76 °C
CP(C)(C)=O [trimethylphosphine oxide]	141 °C
CC[C@H](C)C(=O)O[C@H]1C[C@@H](C)C=C2C=C[C@H](C)[C@H](CC[C@@H]3C[C@@H](O)CC(=O)O3)[C@H]21 [Lovastatin]	175 °C
COc1cc(C=O)cc(Cl)c1O [5-chlorovanillin]	164 °C
N[C@@H](CO)C(=O)O [L-Serine]	222 °C
CC1CCC(C(C)C)C(O)C1 (centres undefined) [2-Isopropyl-5-methylcyclohexanol]	34.5 °C
N#CC(=Cc1cccc(O)c1)C1N=c2ccccc2=N1	300 °C
Nc1cnc2ccccc2c1 [3-aminoquinoline]	94 °C
O=C1C=CC(=O)C=C1 [1,4-Benzoquinone]	114 °C
Cc1nc2ccccc2o1 [2-methylbenzoxazole]	3 °C
O=C(O)c1ccnc(F)c1 [2-fluoropyridine-4-carboxylic acid]	346 °C
Clc1ccc(-c2ccc(Cl)cc2Cl)cc1 [PCB-28]	58 °C
O=[N+]([O-])c1ccc(CCl)cc1 [4-nitrobenzyl_chloride]	73 °C
CN1N=C(C(C)(C)C)CC1=O [3-tert-butyl-1-methyl-2-pyrazolin-5-one]	149 °C
O=C(CBr)c1c(F)c(F)c(F)c(F)c1F [2-bromo-2',3',4',5',6'-pentafluoroacetophenone]	31 °C
c1cc2c3c(cccc3c1)CC2 [1,2-Dihydroacenaphthylene]	95 °C
COc1cc(Br)c(/C=C/C(=O)O)cc1OC [2-bromo-4,5-dimethoxycinnamic acid]	255 °C
c1ccc(CCCc2ccccc2)cc1 [1,3-diphenylpropane]	-21 °C
Clc1cc2c(cc1Cl)-c1cc(Cl)c(Cl)cc1-2 [Biphenylene, 2,3,6,7-tetrachloro-]	239 °C
OCCN(CCO)C(CO)(CO)CO [2,2-bis(hydroxymethyl)-2,2',2''-nitrilotriethanol]	104 °C
CCBr [bromoethane]	-119 °C

Other lines, results leading:

melting point	SMILES
120 °C	Cc1ccc(cc1NC(=O)/C=CC(=O)O)Cl [N-(5-chloro-2-methylphenyl)maleamic acid]
70 °C	c1ccc(CN(Cc2ccccc2)c2ccccc2)cc1 [N,N-dibenzylaniline]
211 °C	COC(=O)c1[nH]c(C(=O)OC)c(O)c1O [dimethyl 3,4-dihydroxypyrrole-2,5-dicarboxylate]
104 °C	COC(=O)/C=C/C(=O)OC [dimethyl fumarate]
55 °C	O=C(c1ccccc1)C1CCCCC1 [cyclohexyl phenyl ketone]
174 °C	C=C[C@H]1CN2CC[C@H]1C[C@@H]2[C@@H](O)c1ccnc2ccc(OC)cc12 [Quinidine]
59 °C	CC(C)[C@@H](NC(=O)OCc1ccccc1)C(=O)O [N-benzyloxycarbonyl-D-valine]
145 °C	C[C@]12C[C@H](O)[C@H]3[C@@H](CCC4=CC(=O)CC[C@@]43C)[C@@H]1CC[C@@H]2C(=O)CO [corticosterone]
-100 °C	CCCCCOC(C)=O [amyl_acetate]
11.8 °C	Cc1cccc(O)c1 [M-Cresol]
45 °C	CC1CCC(C(C)C)C(O)C1 (centres undefined) [menthol]
330 °C	O=c1cc[nH]c(=O)[nH]1 [uracil]
120 °C	O=C(CC(=O)c1ccccc1O)c1ccccc1 [benzoyl(2-hydroxybenzoyl)methane]
108 °C	COc1ccc(C(=O)c2ccc(-c3ccccc3)cc2)cc1OC [biphenyl-4-yl(3,4-dimethoxyphenyl)methanone]
182 °C	Cc1ccc(C(=O)O)cc1 [p-toluic_acid]
263 °C	C[C@@H]1C[C@H]2[C@@H]3CCC4=CC(=O)C=C[C@]4(C)[C@@]3(F)[C@@H](O)C[C@]2(C)[C@@]1(O)C(=O)CO [dexamethasone]
12 °C	NCCNCCNCCN [N,N'-Bis(2-aminoethyl)ethane-1,2-diamine]

melting point	SMILES
33 °C	O=C1c2ccccc2CCc2ccccc21 [dibenzosuberone]
142 °C	O=C(O)c1cccc([N+](=O)[O-])c1 [m-nitrobenzoic_acid]
54 °C	CCCCC[C@H]1CC[C@H](C(=O)O)CC1 [trans-4-n-pentylcyclohexanecarboxylic acid]
115 °C	N#CCc1ccccc1C(=O)O [o-cyanomethyl_benzoic_acid]
106 °C	O=C(O)CCCCCC(=O)O [Pimelic Acid]
127 °C	c1ccc(N(c2ccccc2)c2ccccc2)cc1 [triphenylamine]
87 °C	COc1ccc2cc(C(C)CO)ccc2c1 (centres undefined) [Naproxol]
112 °C	CC(=O)OC1C(C)OC(OCc2ccccc2)C(OC(C)=O)C1OC(C)=O (centres undefined) [benzyl 2,3,4-tri-O-acetyl-6-deoxyhexopyranoside]
201 °C	COc1cc(Cc2cnc(N)nc2N)cc(OC)c1OC [Trimethoprim]
191 °C	O=C1O[C@H]([C@@H](O)CO)C(O)=C1O [ascorbic acid]
177 °C	C=C[C@H]1C[N@@]2CC[C@H]1C[C@H]2[C@H](O)c1ccnc2ccc(OC)cc12 [quinine]
-34 °C	CCOC(=O)c1ccccc1 [ethyl benzoate]
94 °C	CC(C(=O)O)c1cccc(C(=O)c2ccccc2)c1 (centres undefined) [ketoprofen]
237 °C (2×) and 238 °C	O=C(O)c1cccnc1 [nicotinic acid]
122 °C	COC(=O)c1ccc2cc(Br)ccc2c1 [methyl 6-bromo-2-naphthoate]
11 °C	O=Cc1ccccc1Cl [o-chlorobenzaldehyde]
